# In patent publication US20040131686A1, “Composition and method for treatment of bacterial vaginal infections” (priority 2003, published 2004):
# Structures can show the parent of a compound that is named as a salt.
# Experiments:
# [1] = system: Staphylococcus aureus (ATCC #6538); assay: Zone of inhibition on agar plate inoculated with Staphylococcus aureus; type: cell-based
# Method: About 1 grams of each gelled composition was deposited on an agar plate that was previously inoculated with E. coli (ATCC #11229), a Gram-negative bacterium, and the plates were incubated for about 20 to about 28 hours at a temperature of about 35 to about 39° C. Antibacterial activity was evaluated by measuring the diameter of the zone of inhibition (i.e., a clear zone with no bacterial colonies present, measured in millimeters) around the deposited gel.
# Similar plates were prepared wherein the inoculant was Staphylococcus aureus (ATCC #6538), a Gram-positive bacterium.
# (§1) A commercially available vaginal cream formulation of benzydamine hydrochloride, TANTUM ROSA® cream, available from Angelini Pharmaceuticals, Rome, Italy was also evaluated, for comparison. According to the manufacturer's product literature TANTUM ROSA® cream contains about 0.5% benzydamine hydrochloride in a cream base containing propylene glycol, saturated triglycerides, ceteth 20, hydroxyethyl cellulose, sodium citrate dihydrate, citric acid monohydrate, benzoic acid, and purified water. In addition, a simple aqueous solution containing 0.5% by weight of benzydamine hydrochloride in deionized water was tested as a positive control. All materials were tested in triplicate.
# E. coli (ATCC #11229) = assay: Zone of inhibition on agar plate inoculated with E. coli; type: cell-based
# Method: as §1, with “Antibacterial activity was evaluated by measuring the diameter of the zone of inhibition (i.e., a clear zone with no bacterial colonies present, measured in millimeters) around the deposited gel. A commercially” for “A commercially”, “available from […] Pharmaceuticals, Rome,” for “available from Angelini Pharmaceuticals, Rome,”
# [2] = about 1 gram of composition on inoculated agar plate, about 20 to 28 hours, about 35 to 39° C., triplicate
smiles,measurement,setting,value
"CN(C)CCCOc1nn(Cc2ccccc2)c2ccccc12 [B-HCl, Benzydamine hydrochloride]",Staphylococcus clear zone (diameter of zone of inhibition),[1]; [2],14 mm
same,"Antibacterial activity against Gram-positive bacteria (Staphylococcus aureus), in words",[1]; inhibition test on agar plate,effective
same,E. coli clear zone (diameter of zone of inhibition),E. coli (ATCC #11229); [2],12 mm
same,"Antibacterial activity against Gram-negative bacteria (E. coli), in words",E. coli (ATCC #11229); inhibition test on agar plate,effective
